Measurements published in article PMC3115942 (PLoS ONE, 2011).

Tests used:
PANC-1 cells [1] = test: In vitro antiproliferative assay (MTS), PANC-1; format: cell-based, human; settings: 5 µM, 4 day
Experimental: Cells were plated at a density of 3000 (THLE-2 and PC-3) and 1000 (PANC-1, SUIT-2 and FEMX) cells per well (on the basis of their growth rate) in 200 µl of medium in a 96-well plate. Medium was changed daily, and after four days, the assay was read using a MTS kit (Promega) according to the instructions of the manufacturer. Graphs display average of percent growth with standard deviation (n = 8).

PANC-1 cells [2] = test: Passage growth assay, PANC-1; format: cell-based, human; settings: 5 µM, passages of 5–7 days
Experimental: 20,000 cells were seeded per well in 6 well plates (triplicates) with DMSO or 5 µM MS-0022. Treatment medium was changed on day 3–5, and after 5–7 days the cells were trypsinized, re-suspended in medium and counted, before reseeding cells at 20,000/well for a subsequent passage. The average growth of MS-0022 treated cells was calculated as a percentage of the growth of the DMSO control at the end of each passage. Graphs display average of percent growth with standard deviation bars (n = 3).

[3] = test system: Hh pathway in Shh-L2 cells; test: Hh reporter assay in Shh-L2 cells; format: cell-based, mouse
Experimental: Shh-L2 cells were used as a Hh reporter cell line as described previously. Hh signaling was induced by Shh conditioned medium, 200 nM SAG (AH-Diagnostics) and ActOXS (a combination of 5 µM Hydroxycholesterol 20-alfa and 5 µM Hydroxycholesterol 22S (Sigma-Aldrich)). For Shh conditioned medium, Shh-PANC-1 cells were grown to confluence and switched to fresh medium. Shh conditioned medium was harvested after 48 hours, and was diluted to 50% in fresh DMEM before use. The clonal Shh-PANC-1 cell line was generated by stably transducing PANC-1 cells with virus containing medium from HEK293T cells that were transfected using a Virapower Lentiviral expression kit (Invitrogen). The vector was produced by removing GFP from a pLenti 6.2-vector, and inserting the mouse Shh cDNA sequence.
The calculations were performed with an online calculator using the formula: a exp (−bx) + c at the website; http://www.changbioscience.com/stat/ec50.html

CDK1/cyclinB(h) = molecular target: T1, CDK1/cyclinB(h) (Homo sapiens, UniProt P06493); test: Millipore kinaseprofiler diversity array; format: biochemical; settings: 10 µM MS-0022
T1 construct: purchased Millipore (Upstate) KinaseProfiler
Experimental: (§1) Table 4 Kinase activity in presence of 10 µM MS-0022 in a kinaseprofiler diversity array. | column: Activity %

cSRC(h) = molecular target: T2, cSRC(h) (Homo sapiens, UniProt P12931); test: Millipore kinaseprofiler diversity array; format: biochemical; settings: 10 µM MS-0022
T2 construct: purchased Millipore (Upstate) KinaseProfiler
Experimental: as §1

CK2α2(h) = molecular target: T3, CK2α2(h) (Homo sapiens, UniProt P19784); test: Millipore kinaseprofiler diversity array; format: biochemical; settings: 10 µM MS-0022
T3 construct: purchased Millipore (Upstate) KinaseProfiler
Experimental: as §1

CaMKI(h) = molecular target: T4, CaMKI(h) (Homo sapiens, UniProt Q14012); test: Millipore kinaseprofiler diversity array; format: biochemical; settings: 10 µM MS-0022
T4 construct: purchased Millipore (Upstate) KinaseProfiler
Experimental: as §1

Mnk2(h) = molecular target: T5, Mnk2(h) (Homo sapiens, UniProt Q9HBH9); test: Millipore kinaseprofiler diversity array; format: biochemical; settings: 10 µM MS-0022
T5 construct: purchased Millipore (Upstate) KinaseProfiler
Experimental: as §1

PKA(h) = molecular target: T6, PKA(h) (Homo sapiens, UniProt P17612); test: Millipore kinaseprofiler diversity array; format: biochemical; settings: 10 µM MS-0022
T6 construct: purchased Millipore (Upstate) KinaseProfiler
Experimental: as §1

CDK7/cyclinH/MAT1(h) = molecular target: T7, CDK7/cyclinH/MAT1(h) (Homo sapiens, UniProt P50613); test: Millipore kinaseprofiler diversity array; format: biochemical; settings: 10 µM MS-0022
T7 construct: purchased Millipore (Upstate) KinaseProfiler
Experimental: as §1

ALK(h) = molecular target: T8, ALK(h) (Homo sapiens, UniProt Q9UM73); test: Millipore kinaseprofiler diversity array; format: biochemical; settings: 10 µM MS-0022
T8 construct: purchased Millipore (Upstate) KinaseProfiler
Experimental: as §1

LOK(h) = molecular target: T9, LOK(h) (Homo sapiens, UniProt O94804); test: Millipore kinaseprofiler diversity array; format: biochemical; settings: 10 µM MS-0022
T9 construct: purchased Millipore (Upstate) KinaseProfiler
Experimental: as §1

CHK1(h) = molecular target: T10, CHK1(h) (Homo sapiens, UniProt O14757); test: Millipore kinaseprofiler diversity array; format: biochemical; settings: 10 µM MS-0022
T10 construct: purchased Millipore (Upstate) KinaseProfiler
Experimental: as §1

EphB4(h) = molecular target: T11, EphB4(h) (Homo sapiens, UniProt P54760); test: Millipore kinaseprofiler diversity array; format: biochemical; settings: 10 µM MS-0022
T11 construct: purchased Millipore (Upstate) KinaseProfiler
Experimental: as §1

JNK3(h) = molecular target: T12, JNK3(h) (Homo sapiens, UniProt P53779); test: Millipore kinaseprofiler diversity array; format: biochemical; settings: 10 µM MS-0022
T12 construct: purchased Millipore (Upstate) KinaseProfiler
Experimental: as §1

CDK9/cyclin T1(h) = molecular target: T13, CDK9/cyclin T1(h) (Homo sapiens, UniProt P50750); test: Millipore kinaseprofiler diversity array; format: biochemical; settings: 10 µM MS-0022
T13 construct: purchased Millipore (Upstate) KinaseProfiler
Experimental: as §1

IRAK4(h) = molecular target: T14, IRAK4(h) (Homo sapiens, UniProt Q9NWZ3); test: Millipore kinaseprofiler diversity array; format: biochemical; settings: 10 µM MS-0022
T14 construct: purchased Millipore (Upstate) KinaseProfiler
Experimental: as §1

MKK7β(h) = molecular target: T15, MKK7β(h) (Homo sapiens, UniProt O14733); test: Millipore kinaseprofiler diversity array; format: biochemical; settings: 10 µM MS-0022
T15 construct: purchased Millipore (Upstate) KinaseProfiler
Experimental: as §1

DYRK2(h) = molecular target: T16, DYRK2(h) (Homo sapiens, UniProt Q92630); test: Millipore kinaseprofiler diversity array; format: biochemical; settings: 10 µM MS-0022
T16 construct: purchased Millipore (Upstate) KinaseProfiler
Experimental: as §1

cKit(h) = molecular target: T17, cKit(h) (Homo sapiens, UniProt P10721); test: Millipore kinaseprofiler diversity array; format: biochemical; settings: 10 µM MS-0022
T17 construct: purchased Millipore (Upstate) KinaseProfiler
Experimental: as §1

PKG1α(h) = molecular target: T18, PKG1α(h) (Homo sapiens, UniProt Q13976); test: Millipore kinaseprofiler diversity array; format: biochemical; settings: 10 µM MS-0022
T18 construct: purchased Millipore (Upstate) KinaseProfiler
Experimental: as §1

Pim-1(h) = molecular target: T19, Pim-1(h) (Homo sapiens, UniProt P11309); test: Millipore kinaseprofiler diversity array; format: biochemical; settings: 10 µM MS-0022
T19 construct: purchased Millipore (Upstate) KinaseProfiler
Experimental: as §1

PAK2(h) = molecular target: T20, PAK2(h) (Homo sapiens, UniProt Q13177); test: Millipore kinaseprofiler diversity array; format: biochemical; settings: 10 µM MS-0022
T20 construct: purchased Millipore (Upstate) KinaseProfiler
Experimental: as §1

EGFR(h) = molecular target: T21, EGFR(h) (Homo sapiens, UniProt P00533); test: Millipore kinaseprofiler diversity array; format: biochemical; settings: 10 µM MS-0022
T21 construct: purchased Millipore (Upstate) KinaseProfiler
Experimental: as §1

ASK1(h) = molecular target: T22, ASK1(h) (Homo sapiens, UniProt Q99683); test: Millipore kinaseprofiler diversity array; format: biochemical; settings: 10 µM MS-0022
T22 construct: purchased Millipore (Upstate) KinaseProfiler
Experimental: as §1

MAPKAP-K2(h) = molecular target: T23, MAPKAP-K2(h) (Homo sapiens, UniProt P49137); test: Millipore kinaseprofiler diversity array; format: biochemical; settings: 10 µM MS-0022
T23 construct: purchased Millipore (Upstate) KinaseProfiler
Experimental: as §1

MST1(h) = molecular target: T24, MST1(h) (Homo sapiens, UniProt Q13043); test: Millipore kinaseprofiler diversity array; format: biochemical; settings: 10 µM MS-0022
T24 construct: purchased Millipore (Upstate) KinaseProfiler
Experimental: as §1

SRPK1(h) = molecular target: T25, SRPK1(h) (Homo sapiens, UniProt Q96SB4); test: Millipore kinaseprofiler diversity array; format: biochemical; settings: 10 µM MS-0022
T25 construct: purchased Millipore (Upstate) KinaseProfiler
Experimental: as §1

GSK3β(h) = molecular target: T26, GSK3β(h) (Homo sapiens, UniProt P49841); test: Millipore kinaseprofiler diversity array; format: biochemical; settings: 10 µM MS-0022
T26 construct: purchased Millipore (Upstate) KinaseProfiler
Experimental: as §1

MLK1(h) = molecular target: T27, MLK1(h) (Homo sapiens, UniProt P80192); test: Millipore kinaseprofiler diversity array; format: biochemical; settings: 10 µM MS-0022
T27 construct: purchased Millipore (Upstate) KinaseProfiler
Experimental: as §1

CK1γ1(h) = molecular target: T28, CK1γ1(h) (Homo sapiens, UniProt Q9HCP0); test: Millipore kinaseprofiler diversity array; format: biochemical; settings: 10 µM MS-0022
T28 construct: purchased Millipore (Upstate) KinaseProfiler
Experimental: as §1

T16 sequence (Q92630 whole entry): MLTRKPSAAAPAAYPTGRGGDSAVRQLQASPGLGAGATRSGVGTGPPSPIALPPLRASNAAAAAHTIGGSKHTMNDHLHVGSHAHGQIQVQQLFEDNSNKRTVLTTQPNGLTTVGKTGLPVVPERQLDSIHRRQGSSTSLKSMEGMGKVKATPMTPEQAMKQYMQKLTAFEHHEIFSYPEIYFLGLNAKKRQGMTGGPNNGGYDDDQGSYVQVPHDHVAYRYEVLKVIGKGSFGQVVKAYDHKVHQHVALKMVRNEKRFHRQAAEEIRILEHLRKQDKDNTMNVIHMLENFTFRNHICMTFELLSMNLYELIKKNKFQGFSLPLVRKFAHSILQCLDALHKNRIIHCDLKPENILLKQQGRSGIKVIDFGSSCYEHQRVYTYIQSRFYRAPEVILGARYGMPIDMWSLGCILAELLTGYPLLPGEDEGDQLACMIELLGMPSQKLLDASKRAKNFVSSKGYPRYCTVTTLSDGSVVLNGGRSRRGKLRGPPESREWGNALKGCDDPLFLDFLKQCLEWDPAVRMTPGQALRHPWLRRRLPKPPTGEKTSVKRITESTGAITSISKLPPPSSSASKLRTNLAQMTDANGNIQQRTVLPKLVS
T20 sequence (Q13177 whole entry): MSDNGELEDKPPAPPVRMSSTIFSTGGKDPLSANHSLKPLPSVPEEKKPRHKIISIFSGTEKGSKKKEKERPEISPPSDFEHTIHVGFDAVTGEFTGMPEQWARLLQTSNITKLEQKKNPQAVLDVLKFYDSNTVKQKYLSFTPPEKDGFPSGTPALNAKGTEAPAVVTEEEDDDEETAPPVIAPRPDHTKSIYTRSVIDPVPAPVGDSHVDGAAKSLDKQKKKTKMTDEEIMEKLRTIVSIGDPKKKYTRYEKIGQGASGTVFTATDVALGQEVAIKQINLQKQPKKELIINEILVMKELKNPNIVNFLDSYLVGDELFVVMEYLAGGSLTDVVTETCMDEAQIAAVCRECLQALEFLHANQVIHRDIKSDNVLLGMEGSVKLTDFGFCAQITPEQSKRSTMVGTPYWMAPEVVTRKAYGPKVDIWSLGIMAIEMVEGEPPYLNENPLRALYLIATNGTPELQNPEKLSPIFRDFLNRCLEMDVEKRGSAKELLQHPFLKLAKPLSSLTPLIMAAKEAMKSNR
T7 sequence (P50613 whole entry): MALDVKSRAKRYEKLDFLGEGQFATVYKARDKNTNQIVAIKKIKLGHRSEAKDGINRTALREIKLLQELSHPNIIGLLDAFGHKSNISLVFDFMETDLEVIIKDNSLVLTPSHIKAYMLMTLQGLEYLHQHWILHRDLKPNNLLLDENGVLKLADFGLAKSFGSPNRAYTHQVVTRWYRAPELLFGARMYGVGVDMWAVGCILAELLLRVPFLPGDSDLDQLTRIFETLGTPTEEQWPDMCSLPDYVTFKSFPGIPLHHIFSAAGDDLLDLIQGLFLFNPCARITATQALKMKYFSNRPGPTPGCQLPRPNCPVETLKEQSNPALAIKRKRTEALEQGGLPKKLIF
T7 sequence (P51946 whole entry partner): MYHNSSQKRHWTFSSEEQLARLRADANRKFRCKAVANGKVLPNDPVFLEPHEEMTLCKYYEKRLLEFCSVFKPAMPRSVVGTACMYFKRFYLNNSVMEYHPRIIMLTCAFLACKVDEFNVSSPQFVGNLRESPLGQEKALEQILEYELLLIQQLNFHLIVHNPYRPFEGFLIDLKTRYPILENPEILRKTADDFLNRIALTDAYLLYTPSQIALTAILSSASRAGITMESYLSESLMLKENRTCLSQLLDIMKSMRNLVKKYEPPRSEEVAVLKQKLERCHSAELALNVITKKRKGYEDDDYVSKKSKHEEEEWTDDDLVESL
T7 sequence (P51948 whole entry partner): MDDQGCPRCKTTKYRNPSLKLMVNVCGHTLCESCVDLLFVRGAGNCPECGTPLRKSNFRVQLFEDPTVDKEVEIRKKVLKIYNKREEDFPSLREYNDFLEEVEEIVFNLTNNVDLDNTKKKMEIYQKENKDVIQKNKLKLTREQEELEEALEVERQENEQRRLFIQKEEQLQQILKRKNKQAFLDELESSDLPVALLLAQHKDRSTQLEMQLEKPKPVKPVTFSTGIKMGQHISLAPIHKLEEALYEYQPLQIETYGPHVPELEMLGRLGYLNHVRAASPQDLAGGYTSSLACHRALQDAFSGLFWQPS
T17 sequence (P10721 26-976): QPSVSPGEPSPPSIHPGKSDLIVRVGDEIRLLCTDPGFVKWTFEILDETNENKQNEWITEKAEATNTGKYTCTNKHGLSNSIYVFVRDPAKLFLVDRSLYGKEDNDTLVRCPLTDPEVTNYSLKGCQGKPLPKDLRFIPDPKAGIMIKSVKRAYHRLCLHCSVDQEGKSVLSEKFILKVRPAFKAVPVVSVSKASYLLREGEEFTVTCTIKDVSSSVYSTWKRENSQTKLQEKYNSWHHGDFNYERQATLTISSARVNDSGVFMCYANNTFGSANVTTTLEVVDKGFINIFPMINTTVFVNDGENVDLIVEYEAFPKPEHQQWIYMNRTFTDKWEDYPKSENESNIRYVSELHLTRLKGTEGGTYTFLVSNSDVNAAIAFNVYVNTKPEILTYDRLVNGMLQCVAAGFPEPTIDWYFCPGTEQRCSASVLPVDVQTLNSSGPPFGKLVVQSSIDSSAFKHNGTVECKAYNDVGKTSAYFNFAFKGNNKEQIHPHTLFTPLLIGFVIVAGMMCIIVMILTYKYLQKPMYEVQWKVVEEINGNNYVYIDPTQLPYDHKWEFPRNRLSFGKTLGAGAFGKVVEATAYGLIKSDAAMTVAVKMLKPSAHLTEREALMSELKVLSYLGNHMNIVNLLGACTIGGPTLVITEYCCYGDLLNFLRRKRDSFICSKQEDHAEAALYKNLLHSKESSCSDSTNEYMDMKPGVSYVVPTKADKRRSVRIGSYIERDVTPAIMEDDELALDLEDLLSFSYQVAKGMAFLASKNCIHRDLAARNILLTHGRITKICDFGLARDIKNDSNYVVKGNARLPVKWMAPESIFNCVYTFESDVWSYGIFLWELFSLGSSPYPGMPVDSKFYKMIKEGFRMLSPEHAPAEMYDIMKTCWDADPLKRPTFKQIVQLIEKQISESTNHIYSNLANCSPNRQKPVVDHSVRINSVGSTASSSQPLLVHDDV
T21 sequence (P00533 25-1210): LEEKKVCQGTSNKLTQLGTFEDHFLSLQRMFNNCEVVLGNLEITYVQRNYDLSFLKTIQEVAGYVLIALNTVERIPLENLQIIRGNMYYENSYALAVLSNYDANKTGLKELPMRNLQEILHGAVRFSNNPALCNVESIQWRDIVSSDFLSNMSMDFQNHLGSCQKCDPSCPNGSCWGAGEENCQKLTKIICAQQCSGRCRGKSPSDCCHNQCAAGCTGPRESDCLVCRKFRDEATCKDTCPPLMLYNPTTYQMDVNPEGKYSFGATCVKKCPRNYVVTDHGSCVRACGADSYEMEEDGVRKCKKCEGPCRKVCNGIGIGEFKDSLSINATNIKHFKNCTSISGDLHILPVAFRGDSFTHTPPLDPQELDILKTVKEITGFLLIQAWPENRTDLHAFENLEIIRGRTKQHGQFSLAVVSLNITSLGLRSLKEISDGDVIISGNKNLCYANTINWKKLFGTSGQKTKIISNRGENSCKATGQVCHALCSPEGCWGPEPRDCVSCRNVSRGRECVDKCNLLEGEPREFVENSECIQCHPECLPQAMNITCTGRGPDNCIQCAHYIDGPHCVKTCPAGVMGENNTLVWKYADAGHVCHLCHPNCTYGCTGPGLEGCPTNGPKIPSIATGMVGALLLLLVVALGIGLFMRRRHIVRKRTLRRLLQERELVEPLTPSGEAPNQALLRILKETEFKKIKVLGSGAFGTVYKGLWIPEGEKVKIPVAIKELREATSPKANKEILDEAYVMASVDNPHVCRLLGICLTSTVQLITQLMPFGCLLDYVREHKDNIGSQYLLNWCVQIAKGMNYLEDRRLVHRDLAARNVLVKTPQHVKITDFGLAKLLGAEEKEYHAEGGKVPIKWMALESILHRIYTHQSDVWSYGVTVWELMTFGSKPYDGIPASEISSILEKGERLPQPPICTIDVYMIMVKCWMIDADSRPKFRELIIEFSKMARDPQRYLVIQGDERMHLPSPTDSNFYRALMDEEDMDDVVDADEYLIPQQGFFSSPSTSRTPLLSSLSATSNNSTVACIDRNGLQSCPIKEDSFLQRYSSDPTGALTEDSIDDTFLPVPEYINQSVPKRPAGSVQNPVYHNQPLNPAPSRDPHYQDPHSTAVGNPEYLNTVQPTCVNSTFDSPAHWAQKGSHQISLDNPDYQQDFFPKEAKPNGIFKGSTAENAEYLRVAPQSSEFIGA
T12 sequence (P53779 whole entry): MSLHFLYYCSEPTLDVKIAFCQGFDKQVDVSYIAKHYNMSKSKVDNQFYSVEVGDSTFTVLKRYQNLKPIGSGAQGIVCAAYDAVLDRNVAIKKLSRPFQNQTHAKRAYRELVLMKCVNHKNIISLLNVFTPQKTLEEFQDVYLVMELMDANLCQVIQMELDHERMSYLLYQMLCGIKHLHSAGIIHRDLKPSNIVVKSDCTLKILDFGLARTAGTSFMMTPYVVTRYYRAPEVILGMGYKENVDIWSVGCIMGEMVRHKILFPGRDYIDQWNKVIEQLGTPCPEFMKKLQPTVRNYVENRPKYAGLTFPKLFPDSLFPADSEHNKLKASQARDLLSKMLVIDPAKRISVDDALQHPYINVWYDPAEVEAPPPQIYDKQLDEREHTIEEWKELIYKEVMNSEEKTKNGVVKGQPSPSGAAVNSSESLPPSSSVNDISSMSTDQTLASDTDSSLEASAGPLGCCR
T19 sequence (P11309 whole entry): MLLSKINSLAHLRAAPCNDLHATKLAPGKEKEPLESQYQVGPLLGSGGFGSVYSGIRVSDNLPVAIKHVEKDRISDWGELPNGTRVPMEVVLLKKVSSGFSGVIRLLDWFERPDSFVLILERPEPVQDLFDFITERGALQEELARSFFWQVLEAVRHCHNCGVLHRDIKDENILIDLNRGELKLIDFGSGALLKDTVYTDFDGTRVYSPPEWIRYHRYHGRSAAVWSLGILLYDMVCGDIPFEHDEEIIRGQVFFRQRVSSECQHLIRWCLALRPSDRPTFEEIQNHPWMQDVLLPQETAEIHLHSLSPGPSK

## Cc1cccn2cc(-c3ccc(NC(=O)c4ccccc4Br)cc3)nc12 [MS-0022, 2-bromo-N-(4-(8-methylimidazo[1,2-a]pyridin-2-yl)phenyl)benzamide]
PANC-1 cells [1]
  growth (MTS), PANC-1: reduced growth
PANC-1 cells [2]
  growth reduction after passage 2, PANC-1: 80%
[3]; 5 µM, 48 hours, Shh, 200 nM SAG, ActOxs (5 µM+5 µM)
  Hh pathway induction in Shh, SAG and ActOXS induced Shh-L2 cells: blocked Hh pathway induction
[3]; Mus musculus, pathway inhibition in Shh induced Shh-L2 cells, 48 hours treatment
  IC50: 100 nM
CDK1/cyclinB(h)
  activity at 10 µM: 110%
cSRC(h)
  activity at 10 µM: 83%
CK2α2(h)
  activity at 10 µM: 109%
CaMKI(h)
  activity at 10 µM: 106%
Mnk2(h)
  activity at 10 µM: 90%
PKA(h)
  activity at 10 µM: 100%
CDK7/cyclinH/MAT1(h)
  activity at 10 µM: 103%
ALK(h)
  activity at 10 µM: 95%
LOK(h)
  activity at 10 µM: 93%
CHK1(h)
  activity at 10 µM: 84%
EphB4(h)
  activity at 10 µM: 99%
JNK3(h)
  activity at 10 µM: 71%
CDK9/cyclin T1(h)
  activity at 10 µM: 98%
IRAK4(h)
  activity at 10 µM: 95%
MKK7β(h)
  activity at 10 µM: 109%
DYRK2(h)
  activity at 10 µM: 97%
cKit(h)
  activity at 10 µM: 109%
PKG1α(h)
  activity at 10 µM: 94%
Pim-1(h)
  activity at 10 µM: 103%
PAK2(h)
  activity at 10 µM: 93%
EGFR(h)
  activity at 10 µM: 84%
ASK1(h)
  activity at 10 µM: 91%
MAPKAP-K2(h)
  activity at 10 µM: 92%
MST1(h)
  activity at 10 µM: 94%
SRPK1(h)
  activity at 10 µM: 102%
GSK3β(h)
  activity at 10 µM: 88%
MLK1(h)
  activity at 10 µM: 103%
CK1γ1(h)
  activity at 10 µM: 93%
